Experimental findings from ChEMBL document CHEMBL1201862, “PubChem BioAssay data set” (2004) are described below.

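The compound was tested at five concentrations on cells cultured in 96-well plates, with a 48-hour exposure period. GI50 is the concentration that inhibits growth by half.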 Activity calls are given as the source filed them. Cut-off read from the data, not from the text of the source: active = GI50 up to about 1.1 µM and inactive = higher.

Among the test systems are DMS-273; HOP-18; KM-20L2; DMS-114; LXFL 529; SNB-78; DLD-1; XF498; RXF 631.
Experiment in all cases: inhibition of tumour cell growth, NCI panel, 48 h

`O=C1C2=C(CCCC2)Nc2cccc3ncn1c23`: the GI50 was > 100 µM (inactive) in the assay on DMS-273; 10.3 µM (inactive) in the assay on HOP-18; > 100 µM (inactive) in the assay with KM-20L2; > 100 µM (inactive) with DMS-114; > 100 µM (inactive) in the assay with LXFL 529; > 100 µM (inactive) in the assay with SNB-78. Further, the GI50 with DLD-1 is > 100 µM (inactive).

Consider `O=[N+]([O-])c1ccc2c(c1)OCCOCCOc1ccc([N+](=O)[O-])cc1OCCOCCO2`, for which the GI50 with DMS-273 was > 100 µM (inactive); in the assay with KM-20L2, 50.9 µM (inactive); in the assay with DMS-114 it was > 100 µM (inactive); with SNB-78, > 100 µM (inactive).

For `Cc1c(Cl)ccc2c1NC(=O)C2(O)C1Cc2ccccc2C1=O` (stereo not given), the GI50 with HOP-18 is > 100 µM (inactive); in the assay on KM-20L2, > 100 µM (inactive); in the assay on DMS-114, 53.6 µM (inactive); in the assay on LXFL 529 it was 41.1 µM (inactive); with SNB-78, > 100 µM (inactive); in the assay with DLD-1, > 100 µM (inactive).

In the case of `CN(c1ccccc1)c1cc2ccccc2nn1`, the GI50 with DMS-273 is > 100 µM (inactive); in the assay on XF498, 67 µM (inactive); with HOP-18 it was > 100 µM (inactive); in the assay with KM-20L2 it was > 100 µM (inactive); in the assay with DMS-114 it was 52.2 µM (inactive); with LXFL 529, 56.1 µM (inactive). Further, the results for the GI50 in the assay on RXF 631, in the assay on SNB-78 and in the assay with DLD-1 were 34.1 µM (inactive), > 100 µM (inactive) and > 100 µM (inactive), respectively.

Take `COc1ccc2c3c(n(Cc4ccccc4)c(=O)c2c1)-c1cc(OC)c(OC)cc1C3C` (stereo not given): the GI50 in the assay on DMS-273 is 7.6 µM (inactive); in the assay on XF498 it was 7.96 µM (inactive); in the assay with HOP-18, 28.3 µM (inactive); in the assay with KM-20L2, 25.6 µM (inactive); with DMS-114, 23 µM (inactive); with LXFL 529, 10.4 µM (inactive). Further, the figures for the GI50 with RXF 631, in the assay with SNB-78 and with DLD-1 were 15.1 µM (inactive), 57.7 µM (inactive) and 50.9 µM (inactive), respectively.

Regarding `COc1ccc2[nH]c3c(O)nncc3c2c1`, the GI50 in the assay on DMS-273, in the assay on HOP-18, with DMS-114, with LXFL 529, in the assay with SNB-78 and in the assay on DLD-1 was > 100 µM (inactive) throughout.

As for `COC1=CC(=C(C#N)/C(=N\c2ccccc2)SC)C=C(OC)C1=O`, the GI50 with DMS-273 is 36.1 µM (inactive); with HOP-18, > 100 µM (inactive); in the assay with LXFL 529, 17.5 µM (inactive); in the assay on RXF 631, > 100 µM (inactive); with SNB-78, 67.9 µM (inactive); in the assay with DLD-1, 24.5 µM (inactive).

On to `[N-]=[N+]=NC1CC(n2cc(COCC(F)(F)F)c(=O)[nH]c2=O)OC1CO` (stereo not given), for which the GI50 in the assay with DMS-273, in the assay with XF498, with KM-20L2, with DMS-114, in the assay with LXFL 529 and in the assay with SNB-78 was > 100 µM (inactive) throughout. Further, the GI50 in the assay with DLD-1 is > 100 µM (inactive).

For `[N-]=[N+]=NC(c1cn(C2CC(O)C(CO)O2)c(=O)[nH]c1=O)C(Cl)Br` (stereo not given), the GI50 with DMS-273 was > 100 µM (inactive); in the assay with HOP-18, 47.2 µM (inactive); in the assay on KM-20L2, > 100 µM (inactive); in the assay with DMS-114 it was > 100 µM (inactive); with LXFL 529, > 100 µM (inactive); with SNB-78 it was > 100 µM (inactive). In addition, the GI50 with DLD-1 was > 100 µM (inactive).

As to `COC(=O)C(=O)C(CC(=O)Nc1ccc(C)cc1)C(=O)OC` (stereo not given), the GI50 in the assay on XF498, with HOP-18, in the assay on KM-20L2, in the assay with DMS-114, in the assay on LXFL 529 and in the assay on RXF 631 was > 100 µM (inactive) each time. Besides, the GI50 in the assay on SNB-78 and in the assay on DLD-1 was > 100 µM (inactive) each time.

On to `Clc1ccc(C2=NOC3C4CCC(C4)C23)cc1` (stereo not given), for which the GI50 in the assay on DMS-273, in the assay with HOP-18, with LXFL 529, in the assay on SNB-78 and in the assay with DLD-1 was > 100 µM (inactive) each time.

On to `NC(Cc1ccccc1)C(=O)OCN1C(=O)C2C3C=CC(C2C1=O)C1C2C(=O)N(COC(=O)C(N)Cc4ccccc4)C(=O)C2C31` (stereo not given), for which the GI50 in the assay on KM-20L2 was 23.9 µM (inactive); with DMS-114, 16.1 µM (inactive); in the assay with LXFL 529, 20.5 µM (inactive); in the assay with DLD-1, 26.6 µM (inactive).

As to `COc1ccc(/C=C2/C[N+](C)(C)C/C(=C/c3ccc(OC)cc3)C2=O)cc1`, the GI50 was 18.3 µM (inactive) with DMS-273; 88.7 µM (inactive) in the assay with XF498; > 100 µM (inactive) with HOP-18; 50 µM (inactive) in the assay on KM-20L2; 13.4 µM (inactive) in the assay on DMS-114; 21.9 µM (inactive) with LXFL 529. The GI50 is 38.5 µM (inactive) in the assay with SNB-78 and 28.7 µM (inactive) with DLD-1.

`CC(C)C1COC(c2cccc(C3=N[C@@H](C(C)C)CO3)n2)=N1` (stereo not given in full): the GI50 in the assay with DMS-273, with XF498, with KM-20L2, in the assay on DMS-114, in the assay with LXFL 529 and in the assay with RXF 631 was > 100 µM (inactive) in each case. In addition, the GI50 in the assay with SNB-78 and in the assay with DLD-1 was > 100 µM (inactive) throughout.

As for `Nc1ccc2c(c1)Oc1c(F)c(F)cc3c(=O)c(C(=O)O)cn-2c13`, the GI50 with HOP-18 was 51.5 µM (inactive); in the assay on KM-20L2, 53.6 µM (inactive); in the assay on DMS-114, > 100 µM (inactive); in the assay on LXFL 529 it was 41.5 µM (inactive); in the assay with DLD-1, 43.9 µM (inactive).

`CCCO/S(=N\S(=O)(=O)c1ccccc1)c1ccccc1[N+](=O)[O-]` (stereo not given): the GI50 in the assay with DMS-273, in the assay on XF498, in the assay with KM-20L2, in the assay on DMS-114, in the assay with LXFL 529 and with RXF 631 was > 100 µM (inactive) each time. Besides, the GI50 in the assay on SNB-78 and in the assay on DLD-1 was > 100 µM (inactive) throughout.

For the molecule `COC(=O)c1ccccc1NC(=O)C(=O)NNC(=O)c1ccncc1`, the GI50 with DMS-273, in the assay with XF498, in the assay with HOP-18, in the assay with KM-20L2, with DMS-114 and in the assay with LXFL 529 was > 100 µM (inactive) each time. Besides, the GI50 in the assay with RXF 631 and in the assay with DLD-1 was > 100 µM (inactive) each time.

On to `CC(C)(C)c1cc(CCC(=O)Nc2ccc(Cl)cc2)nc(S)n1`, for which the GI50 with DMS-273, in the assay with XF498, in the assay on HOP-18, with KM-20L2, with DMS-114 and with LXFL 529 was > 100 µM (inactive) each time. Moreover, the GI50 with RXF 631 and in the assay on DLD-1 was > 100 µM (inactive) each time.

`COP1(=O)CC2C(Cl)(Cl)C2(C)C1` (stereo not given): the GI50 in the assay with DMS-273, with XF498, with HOP-18, in the assay with KM-20L2, with DMS-114 and with LXFL 529 was > 100 µM (inactive) each time. Besides, the GI50 in the assay on SNB-78 and with DLD-1 was > 100 µM (inactive) each time.

With `O/N=C1/CCCC/C1=C\c1ccc(Cl)c(Cl)c1`, the GI50 in the assay with DMS-273 was 24.7 µM (inactive); in the assay with XF498 it was 19.8 µM (inactive); in the assay on HOP-18 it was 22.1 µM (inactive); in the assay with KM-20L2, 20.5 µM (inactive); in the assay on DMS-114, 19.3 µM (inactive); with LXFL 529, 19.7 µM (inactive). Further, the GI50 with SNB-78 was 22.9 µM (inactive); in the assay on DLD-1 it was 32.9 µM (inactive).

For the molecule `Cc1cc2c(cc1C)[n+]([O-])c(C(=O)/C=C/c1ccc(Cl)cc1)c(C)[n+]2[O-]`, the GI50 was 33.1 µM (inactive) with DMS-273; 21.6 µM (inactive) with XF498; 25.2 µM (inactive) with HOP-18; 36.6 µM (inactive) with KM-20L2; 29.1 µM (inactive) with DMS-114; 28.2 µM (inactive) with LXFL 529. The GI50 with SNB-78 is > 100 µM (inactive); in the assay with DLD-1, 28.8 µM (inactive).

For `Brc1ccc(/N=c2/nc3ccccn3n3nc(-c4ccccc4)cc23)cc1`, the GI50 in the assay on XF498 is 10.3 µM (inactive); in the assay with HOP-18, 29.6 µM (inactive); with KM-20L2, 66.4 µM (inactive); in the assay with DMS-114 it was 99.8 µM (inactive); with LXFL 529, 56.8 µM (inactive); with RXF 631, 31.6 µM (inactive). The GI50 with DLD-1 is 14.7 µM (inactive).

Consider `CC(C)c1ccc2c(c1)CCC1C(C)(C)[C@@H](O)CC[C@]21C` (stereo not given in full), for which the GI50 in the assay on DMS-273 is 31.8 µM (inactive); in the assay on KM-20L2, 21.4 µM (inactive); in the assay with DMS-114, 34.8 µM (inactive); with LXFL 529, 47.3 µM (inactive); in the assay with SNB-78, 47.4 µM (inactive); in the assay on DLD-1 it was 36.6 µM (inactive).

With `CCCCCCCCCCCCCCCCCC(=O)NCCCNCCCNC(=O)CCCCCCCCCCCCCCCCC`, the GI50 in the assay on DMS-273, with HOP-18, in the assay on KM-20L2, with DMS-114, in the assay on LXFL 529 and with RXF 631 was > 100 µM (inactive) in each case. In addition, the GI50 with DLD-1 was > 100 µM (inactive).

For `C=CCCCN1CCCC(C)C1=S` (stereo not given), the GI50 in the assay with DMS-273, in the assay with XF498, in the assay on HOP-18, in the assay on KM-20L2, with DMS-114 and with RXF 631 was > 100 µM (inactive) in each case. In the assay with DLD-1, the GI50 is > 100 µM (inactive).

Turning to `CCc1nc2ccc(NCCN(C)C)c3c(=O)c4ccccc4n1c23`, the GI50 is 0.891 µM (active) with HOP-18; 0.741 µM (active) in the assay on KM-20L2; 1.49 µM (inactive) in the assay with DMS-114; 0.82 µM (active) in the assay with LXFL 529; 1.53 µM (inactive) with SNB-78; 0.533 µM (active) with DLD-1.
